In publication PMC4992173, “Divergent synthesis and identification of the cellular targets of deoxyelephantopins” (Nature Communications, 2016):

Target: T1, Cystatin-B (CSTB) (Homo sapiens, UniProt P04080)
T1 construct: endogenous in cells; host or cells: MCF7
Experiment: In situ competitive profiling in live MCF7 cells (LFQ): CSTB
Format: cell-based
Conditions: protein CSTB, 4 h, then 10 µM 24c, n=4
Excerpt: In our efforts to determine the direct molecular targets of deoxyelephantopin we first performed a gel-based competitive in situ proteomic profiling assay[41] […] While the greater conformational flexibility of probe 24c could potentially lead to more promiscuous target engagement relatively to deoxyelephantopin, it was favoured based on the fact that an alkyne moiety appended to the rigid scaffold of deoxyelephantopin may hinder some of its interactions. MCF7 cells were pretreated with various concentrations of deoxyelephantopin for 4 h, harvested, lysed and the lysates were treated with the fluorogenic probe 24c-Cy3 (10 μM; Supplementary Fig. 10). […] Furthermore, cells were pretreated with 20 μM concentration of deoxyelephantopin or 24c and the proteomic profiles were compared (Fig. 6b, Supplementary Fig. 11). Multiple bands were detected that were equally competed by both DEP and 24c, thus again confirming that 24c can be used as an acceptable clickable analogue of deoxyelephantopin in pulldown assays. Having established the optimal labelling conditions by SDS–PAGE, we next carried out a mass spectrometry-based competitive profiling assay[42] coupled with the method of stable isotope labelling of amino acids in culture (SILAC)[43]. […]
Figure 6 Proteome-wide identification of deoxyelephantopin targets. […] Quantification was performed using label-free quantification (LFQ) method (n=4). […]

T1 sequence (P04080 whole entry): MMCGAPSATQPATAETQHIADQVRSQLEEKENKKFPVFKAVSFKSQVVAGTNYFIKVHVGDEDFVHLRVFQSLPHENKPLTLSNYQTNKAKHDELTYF

## C=C(C)C(=O)O[C@H]1CC2=C[C@@H](C/C(C)=C/[C@H]3OC(=O)C(=C)[C@H]13)OC2=O [deoxyelephantopin]
  LFQ ratio 20 µM Deoxyelephantopin/DMSO with 24c: 0.28
